# Results: patent US5721338A, “Inhibitors of oligosaccharyl transferase” (California Institute of Technology, priority 1995, dated 1998)
# Starred links: 1 amine or outer side, 2 acyl side, 3 side chain; linkers in the order of their positions; H or OH if unused. Positions of bridges follow the written chain, without caps; N, C: chain ends. Non-standard residues stand in square brackets, D forms with d. Residues, ends and D or L forms follow the SMILES beside them. Phe(4-NO2) = N[C@@H](Cc1ccc([N+](=O)[O-])cc1)C(=O)O; X1 = O=C(CCCCC[*:2])[*:1]; Dab = NCC[C@H](N)C(=O)O
# B1: S. Cerevisiae Oligosaccharyl Transferase (Saccharomyces cerevisiae S288C) (protein)
# chain: MGSDRSCVLSVFQTILKLVIFVAIFGAAISSRLFAVIKFESIIHEFDPWFNYRATKYLVNNSFYKFLNWFDDRTWYPLGRVTGGTLYPGLMTTSAFIWHALRNWLGLPIDIRNVCVLFAPLFSGVTAWATYEFTKEIKDASAGLLAAGFIAIVPGYISRSVAGSYDNEAIAITLLMVTFMFWIKAQKTGSIMHATCAALFYFYMVSAWGGYVFITNLIPLHVFLLILMGRYSSKLYSAYTTWYAIGTVASMQIPFVGFLPIRSNDHMAALGVFGLIQIVAFGDFVKGQISTAKFKVIMMVSLFLILVLGVVGLSALTYMGLIAPWTGRFYSLWDTNYAKIHIPIIASVSEHQPVSWPAFFFDTHFLIWLFPAGVFLLFLDLKDEHVFVIAYSVLCSYFAGVMVRLMLTLTPVICVSAAVALSKIFDIYLDFKTSDRKYAIKPAALLAKLIVSGSFIFYLYLFVFHSTWVTRTAYSSPSVVLPSQTPDGKLALIDDFREAYYWLRMNSDEDSKVAAWWDYGYQIGGMADRTTLVDNNTWNNTHIAIVGKAMASPEEKSYEILKEHDVDYVLVIFGGLIGFGGDDINKFLWMIRISEGIWPEEIKERDFYTAEGEYRVDARASETMRNSLLYKMSYKDFPQLFNGGQATDRVRQQMITPLDVPPLDYFDEVFTSENWMVRIYQLKKDDAQGRTLRDVGELTRSSTKTRRSIKRPELGLRV
# notes: a solubilized preparation of the yeast enzyme oligosaccharyl transferase; endogenous in cells; host or cells: Saccharomyces cerevisiae (crude, Triton-solubilized enzyme preparation)
# Columns and labels:
# [1] = target: T1, S. Cerevisiae Oligosaccharyl Transferase (Saccharomyces cerevisiae, UniProt P39007); test: Inhibition kinetics (competitive inhibition) with solubilized yeast oligosaccharyl transferase; glycopeptide production from Dol-P-P-GlcNAc-[3H]-GlcNAc and Bz-Asn-Leu-Thr-NHMe; type: biochemical; conditions: 37.5 μM Bz-Asn-Leu-Thr-NHMe, control rate 701 dpm min^-1
# T1 construct: a solubilized preparation of the yeast enzyme oligosaccharyl transferase; endogenous in cells; host or cells: Saccharomyces cerevisiae (crude, Triton-solubilized enzyme preparation)
# Method: (§1) Inhibition kinetics with 2 and S. Cerevisiae Oligosaccharyl Transferase:
# (§2) Prior to assaying, 26.3 μL of the crude enzyme were equilibrated for thirty minutes in the presence of 197.4 μL assay buffer (50 mM Hepes, pH 7.5, 1% Triton-X, 140 mM sucrose, 0.5 mg/mL phosphatidylcholine, and 10 mM MnCl2) and 13.15 μL 750 μM Bz-Asn-Leu-Thr-NHMe in DMSO. […] A 100,000 dpm aliquot of Dol-P-P-GlcNAc-[^3 H]-GlcNAc (specific activity 36.5 Ci/mmol) was brought to dryness in an eppendorf. The lipid-linked donor was then redissolved 10 μL assay buffer. The assay was initiated by the addition of 190 μL of the equilibrated enzyme. Four time points were obtained by removing 40 μL aliquots at 1.5 minute intervals. Each aliquot was quenched in a solution of 1.2 mL 3/2/1 chloroform/methanol/4 mM MgCl2. The aqueous layer was removed and the organic layer was washed twice with 0.6 mL TUP. The aqueous layers were combined and counted (dpm) in 5 mL Ecolite (ICN). The organic layers were brought to dryness under nitrogen solvable (200 μL, Dupont) was added to each organic fraction and agitated for 45 minutes. The organic layers were counted (dpm) in 7 mL Formula 989 (DuPont). Glycopeptide production is expressed as disintegrations per minute based on the values obtained from the dpms of the aqueous layer corrected for the total dpms in the aqueous and organic layers combined.
# [2] = substrate: CNC(=O)[C@@H](NC(=O)[C@H](CC(C)C)NC(=O)[C@H](CC(N)=O)NC(=O)c1ccccc1)[C@@H](C)O; test: as above; type: biochemical, S. Cerevisiae; conditions: other: competing substrate of OT, used in the Ki equation; pH 7.5
# Method: as §1, §2
Molecule,rate of glycopeptide production ([1]; 10 nM solution of 2) [dpm min^-1],rate of glycopeptide production ([1]; 100 nM solution of 2) [dpm min^-1],Km [2] [µM]
"CC(C)[C@H](NC(=O)[C@@H](NC(=O)[C@@H]1CSCCCCCC(=O)N[C@@H](CCN)C(=O)N1)[C@@H](C)O)C(=O)N[C@H](C(=O)N[C@@H](Cc1ccc([N+](=O)[O-])cc1)C(N)=O)[C@@H](C)O [Compound 2, Cyclo(Amb-Cys)-Thr-Val-Thr-Nph] ([Dab]CTVT[Phe(4-NO2)]-NH2; linker N-2 via X1)",572,296,
B1,,,25
